Eight molecules from US7109197B2, “N-phenyl-4-(4-pyridyl)-2-pyrimidineamine derivatives” (Syngenta Crop Protection, Inc., priority 2000, dated 2006) can be followed below.

Type in all cases: in vivo
The subject of assay [1] is Venturia inaegualis. Briefly: Assay B-5: Residual protective activity against Venturia inaegualis on apples (scab on apple). The note with it: Venturia inaegualis on apple seedlings cv. McIntosh; 0.02% active substance, spray. The protocol:
Assay B-5: Residual Protective Activity Against Venturia inaegualis on Apples (Scab on Apple) 4 week old apple seedlings cv. McIntosh are treated with the formulated testcompound (0.02% active substance) in a spray chamber. One day after application apple plants are inoculated by spraying a spore suspension (4×10^5 conidia/ml) on the test plants. After an incubation period of 4 days at 21° C. and 95% r. h. the plants are placed for 4 days at 21° C. and 60% r. h. in a greenhouse. After another 4 day incubation period at 21° C. and 95% r. h. the disease incidence is assessed.

Assay [2] has as its system Pyrenophora teres (Helminthosporium). Briefly: Assay B-10: Effect against Pyrenophora teres (Helminthosporium)/barley (net blotch on barley). The following applies: Pyrenophora teres on barley cv. Regina; 0.02% active substance, spray. As for the experimental part: Assay B-10: Effect Against Pyrenophora teres (Helminthosporium)/Barley (Net Blotch on Barley) 1 week old barley plants cv. Regina are treated with a formulated testcompound (0.02% active substance) in a spray chamber. Two days after application barley plants are inoculated by spraying a spore suspension (3×10^4 conidia/ml) on the test plants. After an incubation period of 2 days at 20° C. and 95% r.h. plants are kept for 2 days at 20° C. and 60% r.h. in a greenhouse. The disease incidence is assessed 4 days after inoculation.

Assay [3] deals with Botrytis cinerea. Description: Assay B-7: Botrytis cinerea/grape (Botrytis on grapes). The note with it: Botrytis cinerea on grape seedlings cv. Gutedel; 0.02% active substance, spray. As for the experimental part: Assay B-7: Botrytis cinerea/Grape (Botrytis on Grapes) 5 week old grape seedlings cv. Gutedel are treated with the formulated testcompound (0.02% active substance) in a spray chamber. Two days after application grape plants are inoculated by spraying a spore suspension (1×10^6 conidia/ml) on the test plants. After an incubation period of 4 days at 21° C. and 95% r. h. in a greenhouse the disease incidence is assessed.

The test system of assay [4] is Botrytis cinerea. Description: Assay B-8: Effect against Botrytis cinerea/tomato (Botrytis on tomatoes). The following applies: Botrytis cinerea on tomato cv. Roter Gnom; 0.02% active substance, spray. The protocol:
Assay B-8: Effect Against Botrytis cinerea/Tomato (Botrytis on Tomatoes) 4 week old tomato plants cv. Roter Gnom are treated with the formulated testcompound 0.02% active substance) in a spray chamber. Two days after application tomato plants are inoculated by spraying a spore suspension (1×10^5 conidia/ml) on the test plants. After an incubation period of 4 days at 20° C. and 95% r. h. in a greenhouse the disease incidence is assessed.

In assay [5] the test system is Septoria nodorum. Description: Assay B-12: Effect against Septoria nodorum/wheat (Septoria leaf spot on wheat). The following applies: Septoria nodorum on wheat cv. Arina; 0.02% active substance, spray. The protocol:
Assay B-12: Effect Against Septoria nodorum/Wheat (Septoria Leaf Spot on Wheat) 1 week old wheat plants cv. Arina are treated with a formulated test compound (0.02% active substance) in a spray chamber. One day after application wheat plants are inoculated by spraying a spore suspension (5×10^5 conidia/ml) on the test plants. After an incubation period of 1 day at 20° C. and 95% r.h. plants are kept for 10 days at 20° C. and 60% r.h. in a greenhouse. The disease incidence is assessed 11 days after inoculation.

As to `CCC(C)C(CO)Nc1cc(-c2ccnc(Nc3cccc(Cl)c3)n2)ccn1` (stereo not drawn) [Compound 41], the B5 activity entry in assay [1] was “+ (the activity observed in the corresponding test system is 70% or more)”. For the same molecule, the B10 activity entry in assay [2] is recorded as “+ (the activity observed in the corresponding test system is 70% or more)”. For the same molecule, in assay [3], the B7 activity entry is on record as “+ (the activity observed in the corresponding test system is 70% or more)”.
On to `CCCC(CO)Nc1cc(-c2ccnc(Nc3cccc(Cl)c3)n2)ccn1` (stereo not drawn) [Compound 27], for which the B8 activity entry in assay [4] is reported as “+ (the activity observed in the corresponding test system is 70% or more)”. Besides, in assay [2], the B10 activity entry is given as “+ (the activity observed in the corresponding test system is 70% or more)”. Besides, the B12 activity entry in assay [5] is “+ (the activity observed in the corresponding test system is 70% or more)”. In assay [3], the B7 activity result is reported as “+ (the activity observed in the corresponding test system is 70% or more)”.
`CC(COc1ncccn1)Nc1cc(-c2ccnc(Nc3cccc(Cl)c3)n2)ccn1` (stereo not drawn) [Compound 95]: in assay [1], the B5 activity entry was “+ (the activity observed in the corresponding test system is 70% or more)”. Besides, in assay [2], the B10 activity result was “+ (the activity observed in the corresponding test system is 70% or more)”. Also, the B12 activity entry in assay [5] is recorded as “+ (the activity observed in the corresponding test system is 70% or more)”.
Turning to `CC(CNc1cc(-c2ccnc(Nc3cccc(Cl)c3)n2)ccn1)Cn1ccnc1` (stereo not drawn) [Compound 30], the B8 activity result in assay [4] is on record as “+ (the activity observed in the corresponding test system is 70% or more)”. In assay [1], the B5 activity entry is “+ (the activity observed in the corresponding test system is 70% or more)”. Further, the B10 activity entry in assay [2] is recorded as “+ (the activity observed in the corresponding test system is 70% or more)”. In assay [5], the B12 activity result is recorded as “+ (the activity observed in the corresponding test system is 70% or more)”.
As to `CC(C)(CO)Nc1cc(-c2ccnc(Nc3cccc(Cl)c3)n2)ccn1` [Compound 28], the B8 activity entry in assay [4] was “+ (the activity observed in the corresponding test system is 70% or more)”. Besides, the B5 activity result in assay [1] is “+ (the activity observed in the corresponding test system is 70% or more)”. In assay [2], the B10 activity result is “+ (the activity observed in the corresponding test system is 70% or more)”. The B12 activity entry in assay [5] is “+ (the activity observed in the corresponding test system is 70% or more)”. Moreover, the B7 activity result in assay [3] was “+ (the activity observed in the corresponding test system is 70% or more)”.
Regarding `CCOCCNc1cc(-c2ccnc(Nc3cccc(Cl)c3)n2)ccn1` [Compound 26], in assay [4], the B8 activity result is “+ (the activity observed in the corresponding test system is 70% or more)”. The B10 activity entry in assay [2] is “+ (the activity observed in the corresponding test system is 70% or more)”. For the same molecule, in assay [5], the B12 activity entry is recorded as “+ (the activity observed in the corresponding test system is 70% or more)”. For the same molecule, in assay [3], the B7 activity result is listed as “+ (the activity observed in the corresponding test system is 70% or more)”.
Consider `COCOCC(C)N(COC)c1cc(-c2ccnc(Nc3cccc(Cl)c3)n2)ccn1` (stereo not drawn) [Compound 38], for which, in assay [1], the B5 activity entry is listed as “+ (the activity observed in the corresponding test system is 70% or more)”. Further, the B10 activity entry in assay [2] is on record as “+ (the activity observed in the corresponding test system is 70% or more)”. Further, in assay [5], the B12 activity entry is listed as “+ (the activity observed in the corresponding test system is 70% or more)”.
With `OCC(CO)Nc1cc(-c2ccnc(Nc3cccc(Cl)c3)n2)ccn1` [Compound 35], the B8 activity entry in assay [4] is given as “+ (the activity observed in the corresponding test system is 70% or more)”. Moreover, the B5 activity result in assay [1] was “+ (the activity observed in the corresponding test system is 70% or more)”. Moreover, in assay [2], the B10 activity entry is given as “+ (the activity observed in the corresponding test system is 70% or more)”. The B7 activity result in assay [3] is recorded as “+ (the activity observed in the corresponding test system is 70% or more)”.
